In US20180291070A1, “PEPTIDES, AND USES THEREOF” (priority 2015, published 2018):
Read-outs that look alike come from different tables or passages of the source. Ends that are not written are not given here.

Assays:
[1] = system: E. coli ATCC 25922; experiment: microbe, parasite or virus in culture; format: cell-based; conditions: for zone of inhibition at 64 µg/mL: Escherichia coli, 10 μL at 64 μg/mL on disk, read-out: Inhibition zone diameter (mm)
Experimental: (§1) Blank disks were placed in the plates and 10 μL of each compound (at 64 μg/mL—maximum concentration tested) added.
(§2) After incubation period results were registered and plates photographed.

[2] = system: MRSA ATCC 43300; experiment: microbe, parasite or virus in culture; format: cell-based, Methicillin-Resistant Staphylococcus aureus; conditions: for zone of inhibition at 64 µg/mL: Staphylococcus aureus, 10 μL at 64 μg/mL on disk, read-out: Inhibition zone diameter (mm)
Experimental: as §1, §2

[3] = system: A. baumannii ATCC 19606; experiment: antibacterial activity testing in solid media (disk, Mueller-Hinton plates); format: cell-based, Acinetobacter baumannii; parameters: key to Inhibition zone diameter (mm): NI—No Inhibition of growth; conditions: for zone of inhibition at 64 µg/mL: Acinetobacter baumannii, read-out: Inhibition zone diameter (mm); for zone of inhibition at 64 µg/mL / Inhibition zone diameter (mm): 10 μL at 64 μg/mL on disk
Experimental: as §1, §2

[4] = system: keratinocytes of the basal layer of the epidermis; experiment: Ki67 immunohistochemistry (mitotic index) in skin explants; format: cell-based, Human; conditions: for number of mitotic cells compared to EGF: day 1
Experimental: (§3) Skin explants were prepared from abdominal plastic surgery. Some explants were delipidated with alcohol to obtain a dehydrated skin.
(§4) These explants were maintained in maintenance medium supplied by the provider Biopredic International for 5 days. Test items are applied twice per day with 5 μL per explant.
(§5) For each time of analysis (D1 and D5), histologies on delipidated explants, treated explants with test items, the DMSO 0.3% control and water control, are performed.
(§6) After receipt in the laboratory, each skin explant in the maintenance medium is delipidated with 5 μL alcohol during 3 hours.
(§7) After 3 hours, all skin explants are treated two per day with test items, and they are incubated at 37° C.+/−2° C., 5% CO2 for 1 day or 5 days.
Epithelial proliferation was analyzed by immunohistochemistry using anti-Ki67 antibody. […] Counting the number of labeled cells (keratinocytes of the basal layer of the epidermis) is performed and provides the total number of basal cells to calculate the % of labeled cells.
The results of the immunohistochemical analysis of Ki67 are reported in Table 5 and expressed as % of labelled at the basal layer of the epidermis. The Error! […] Immunohistochemical analysis of mitotic activity is shown in annex 4 with a reminder of the average for each analysed conditions.

[5] = system: elastic fibers of the dermis; experiment: morphometric quantification of elastic fibers in skin explants; format: cell-based, Human; conditions: for Morphometric quantification of elastic fibers in the middle dermis (%) / Morphometric quantification of elastic fibers in the superficial dermis (%): applied twice per day, 5 μL per explant
Experimental: as §3, §4, §5, §6, §7
The immunohistochemical staining intensity in the elastic fibers is evaluated using a semi-quantitative histological score.
The percentage area taken up by elastic fibers in the dermis was calculated in the dermis and the average superficial dermis. Results are presents in Table 4, FIG. 2 and FIG. 3.

[6] = system: TNF-α; experiment: TNF-α secretion by LPS-stimulated THP-1 differentiated macrophages (Biolegend ELISA); format: cell-based, human; conditions: THP-1 differentiated macrophages treated 24 hrs. prior to LPS stimulation
Experimental: TNF-α is secreted by macrophages in response to stimulation by endotoxins such as lipopolysaccharides (LPS). TNF-α is thought to be involved in systemic inflammation and dysregulation of TNF-α production is thought to be involved in many diseases. The Biolegend assay is a sandwich ELISA kit that is designed for the accurate quantitation of human TNF-α from cell culture supernatant, serum or plasma.
THP-1 monocytes were seeded in a 96 well plate at 10,000 cells per well in RPMI containing 10% fetal calf serum (FCS), 1% Pen/strep, 1% L-glutamine, 100 nM PMA and allowed to differentiated for 72 h prior to experimentation.
Following differentiation the cells were incubated with 100 ng/ml, 10 ng/ml or 1 ng/ml synthetic peptide for 24 h respectively.
Following treatment the cells were stimulated with 10 ng/ml LPS for 5 h and the quantity of TNF-α in the supernatant determined using the Biolegend assay ELISA kit.
Results were calculated as a percentage of the untreated control. An increase in optical density reading indicates greater quantity of TNF-α release into cell culture supernatant.
All experiments were prepared in duplicate on three plates (6 wells/conditions). Significance was calculated using Students t-test (*p<0.05 compared to control, **p<0.01 compared to control, *** p<0.001 compared to control).

[7] = system: GLUT4; experiment: GLUT4myc translocation in L6 myotubes; format: cell-based
From the text: We determined the effect of six synthetic peptides (SP1-6) and four peptide compositions on in vitro GLUT4 translocation using the L6 rat skeletal muscle cell line. A clone of the L6 cell line containing overexpression of GLUT4 tagged with a c-myc epitope (courtesy of Prof. Amira Klip, Hospital for Sick Children, Toronto) was used to investigate the efficacy of each synthetic peptide and peptide composition for effects on GLUT4 translocation in a dose-response design.
L6-GLUT4myc cells were grown in 10% FBS and 2 μg/ml blasticidin. Cells were grown for 48-72 hours before being seeded in 24-well plates at 15,000 cells per well in 2% FBS and allowed to differentiate for 6 to 8 days prior to experimentation.
L6-GLUT4myc cells were serum-starved for three hours prior to incubation with 100 nM of insulin for 30 mins, or 200, 20, 2.0 and 0.2 μM of SP, and 2, 1, 0.5 and 0.25 mg/ml of peptide composition for 3 hours respectively. A 3 hour incubation period was selected based on previous findings identifying that incubation with branch chain amino acid containing di-peptides for 3 hours increases glucose uptake in L6 myotubes 1. Treatments were staggered in order to determine GLUT4myc translocation at the same time point.
The quantity of myc-tagged GLUT4 at the cell surface was measured by antibody-coupled colorimetric assay. Briefly, after incubation with either insulin for 30 mins or synthetic peptide or peptide composition for 3 hours respectively, L6-GLUT4myc cells were fixed via incubation with 3% paraformaldehyde (PFA). A 0.1 M glycine solution was then added to quench PFA and cells were blocked with 5% goat serum. The myotube monolayer was exposed to anti-myc antibody and then incubated with peroxidase conjugated donkey anti-mouse IgG. 1 mL of o-phenylenediamine dihydrochloride (OPD) reagent was added to each well and this reaction was stopped by adding […] of 3 M HCL. To determine GLUT4 translocation to cell surface, a measured aliquot of each condition was determined spectrophotometrically on a plate reader using absorbance at 492 nm.
In addition to an untreated control, 100 nM insulin was utilised to stimulate a maximal GLUT4 translocation response i.e. a positive control in each experiment. […] Treatments were staggered so that all conditions (untreated, insulin and sample) were processed at the same time-point.

[8] = final result, not at the levels of susceptibility

## O=C(O)c1cn(C2CC2)c2cc(N3CCNCC3)c(F)cc2c1=O [CIP, Ciprofloxacin]
[1]; ATCC25922, Rep 1
  zone of inhibition at 64 µg/mL: 42 mm
[1]; ATCC25922, Rep 2
  zone of inhibition at 64 µg/mL: 40 mm
[1]; ATCC25922, Rep 3
  zone of inhibition at 64 µg/mL: 42 mm
[2]; Rep 1
  zone of inhibition at 64 µg/mL: 27 mm
[2]; Rep 2
  zone of inhibition at 64 µg/mL: 28 mm
[2]; Rep 3
  zone of inhibition at 64 µg/mL: 29 mm
[3]; ATCC19606, Rep 1
  zone of inhibition at 64 µg/mL: 27 mm
[3]; ATCC19606, Rep 2
  zone of inhibition at 64 µg/mL: 28 mm
[3]; ATCC19606, Rep 3
  zone of inhibition at 64 µg/mL: 27 mm

## DEHQKIHQFR [0723.08]
[4]; D1
  % of Ki67 positive cells in the basal layer of the epidermis: 27.83%
[4]; D5
  % of Ki67 positive cells in the basal layer of the epidermis: 5.72%
[4]
  number of mitotic cells compared to EGF: increase
[5]; D1
  Morphometric quantification of elastic fibers in the middle dermis (%): 3.52%
  Morphometric quantification of elastic fibers in the superficial dermis (%): 2.7%
[5]; D5
  Morphometric quantification of elastic fibers in the middle dermis (%): 7.27%
  Morphometric quantification of elastic fibers in the superficial dermis (%): 5.32%
[6]
  TNF-α secretion reduced vs. untreated cells: 80%

## DTFYNAAWDPSNR [SP1, reference compound]
[7]; 200 μM, L6-GLUT4myc cells
  cell viability: poor cell viability

## EDLRLVDLVIPVNGPGKFE [0723.06]
[4]; D1
  % of Ki67 positive cells in the basal layer of the epidermis: 31.97%
[4]; D5
  % of Ki67 positive cells in the basal layer of the epidermis: 5.04%
[4]
  number of mitotic cells compared to EGF: increase
[5]; D1
  Morphometric quantification of elastic fibers in the middle dermis (%): 4.54%
  Morphometric quantification of elastic fibers in the superficial dermis (%): 3.8%
[5]; D5
  Morphometric quantification of elastic fibers in the middle dermis (%): 8.67%
  Morphometric quantification of elastic fibers in the superficial dermis (%): 4.03%

## EGF (Epidermal Growth Factor): Epidermal Growth Factor, 10 ng/mL, comparison condition in the skin explant tests [reference compound]
[4]; D1
  % of Ki67 positive cells in the basal layer of the epidermis: 25.11%
[4]; D5
  % of Ki67 positive cells in the basal layer of the epidermis: 4.2%
[5]; D1
  Morphometric quantification of elastic fibers in the middle dermis (%): 5.68%
  Morphometric quantification of elastic fibers in the superficial dermis (%): 3.64%
[5]; D5
  Morphometric quantification of elastic fibers in the middle dermis (%): 6.61%
  Morphometric quantification of elastic fibers in the superficial dermis (%): 5.61%

## HGEWRPSYEKQEDEE [0723.03]
[4]; D1
  % of Ki67 positive cells in the basal layer of the epidermis: 22.01%
[4]; D5
  % of Ki67 positive cells in the basal layer of the epidermis: 10.04%
[5]; D1
  Morphometric quantification of elastic fibers in the middle dermis (%): 4.9%
  Morphometric quantification of elastic fibers in the superficial dermis (%): 3%
[5]; D5
  elastic fibers in the middle dermis compared to the water control: increase
  elastic fibers in the superficial dermis compared to control water: increase by twice
  Morphometric quantification of elastic fibers in the middle dermis (%): 9%
  Morphometric quantification of elastic fibers in the superficial dermis (%): 11.68%

## HPVAITASSNLNLLGFG [0723.02]
[4]; D1
  % of Ki67 positive cells in the basal layer of the epidermis: 19.61%
[4]; D5
  % of Ki67 positive cells in the basal layer of the epidermis: 6.73%
[5]; D1
  Morphometric quantification of elastic fibers in the middle dermis (%): 11.75%
  Morphometric quantification of elastic fibers in the superficial dermis (%): 6.09%
[5]; D5
  elastic fibers in the middle dermis compared to the water control: increase
  Morphometric quantification of elastic fibers in the middle dermis (%): 9.08%
  Morphometric quantification of elastic fibers in the superficial dermis (%): 7.59%
[5]; day 1
  elastic fibers in the middle dermis compared to control water: increase doubled
[6]
  TNF-α secretion reduced vs. untreated cells: 80%

## LNSQKFPILNLVQLSATR [I_87_SF]
[1]; ATCC 25922
  inhibition zone: 9-10 mm
[1]; [8]
  inhibitory activity: some inhibitory activity
[2]; agar plates
  inhibition zone: 18 mm
[2]; [8]
  inhibitory activity: some inhibitory activity
[3]; Rep 1
  Inhibition zone diameter (mm): NI
[3]; Rep 2
  Inhibition zone diameter (mm): NI
[3]; Rep 3
  Inhibition zone diameter (mm): NI
[3]; final result
  inhibitory activity: No activity

## QQYGIAASPFLQSAA [0723.07]
[4]; D1
  % of Ki67 positive cells in the basal layer of the epidermis: 22.22%
[4]; D5
  % of Ki67 positive cells in the basal layer of the epidermis: 5.26%
[5]; D1
  Morphometric quantification of elastic fibers in the middle dermis (%): 6.46%
  Morphometric quantification of elastic fibers in the superficial dermis (%): 4%
[5]; D5
  Morphometric quantification of elastic fibers in the middle dermis (%): 5.33%
  Morphometric quantification of elastic fibers in the superficial dermis (%): 5.15%

## RHGEWRPSY [0723.01]
[4]; D1
  % of Ki67 positive cells in the basal layer of the epidermis: 18.57%
[4]; D5
  % of Ki67 positive cells in the basal layer of the epidermis: 3.92%
[5]; D1
  Morphometric quantification of elastic fibers in the middle dermis (%): 7.59%
  Morphometric quantification of elastic fibers in the superficial dermis (%): 4.45%
[5]; D5
  elastic fibers in the middle dermis compared to the water control: increase
  elastic fibers in the superficial dermis compared to control water: increase by twice
  Morphometric quantification of elastic fibers in the middle dermis (%): 10.17%
  Morphometric quantification of elastic fibers in the superficial dermis (%): 10.21%

## RPYYSNAPQEIF [0723.04]
[4]; D1
  % of Ki67 positive cells in the basal layer of the epidermis: 14.97%
[4]; D5
  % of Ki67 positive cells in the basal layer of the epidermis: 11.36%
[5]; D1
  Morphometric quantification of elastic fibers in the middle dermis (%): 5.22%
  Morphometric quantification of elastic fibers in the superficial dermis (%): 3.28%
[5]; D5
  Morphometric quantification of elastic fibers in the middle dermis (%): 9%
  Morphometric quantification of elastic fibers in the superficial dermis (%): 8.94%

## VLDLAIPVNRPGQL [SP2, glucose transport promoting fragment of Pea Protein P13918, Section C]
[7]; 0.2-2 μM, 3 hours
  GLUT4 translocation: trend for SP2 to increase GLUT4 translocation
[7]; conclusion of the experiment
  stimulatory effect on skeletal muscle GLUT4 translocation: trend for stimulatory effect

## VLLEQQEQEPQH [0723.05]
[4]; D1
  % of Ki67 positive cells in the basal layer of the epidermis: 9.48%
[4]; D5
  % of Ki67 positive cells in the basal layer of the epidermis: 3.08%
[5]; D1
  Morphometric quantification of elastic fibers in the middle dermis (%): 8.8%
  Morphometric quantification of elastic fibers in the superficial dermis (%): 6.34%
[5]; D5
  Morphometric quantification of elastic fibers in the middle dermis (%): 6.61%
  Morphometric quantification of elastic fibers in the superficial dermis (%): 6.26%
